Results: patent publication US7906508B2, “3,4-dihydrobenzoxazine compounds and inhibitors of vanilloid receptor subtype 1 (VRI) activity” (Japan Tobacco Inc., priority 2005, dated 2011)
Like-named read-outs stand apart in the source and are kept apart here.

How the values were obtained:
human VR1 = target: T1, human VR1 (Homo sapiens, UniProt Q8NER1); test: Inhibition of Ca2+ entry in cells caused by proton (Test Example [1]); type: cell-based; conditions: for IC50: rat glioma (C6BU1) cells stably expressing human VR1, proton stimulation, pH 5.7, Ca2+ uptake, Fura 2-AM, read-out: VRI Inhibition IC50
T1 construct: expressed in transfected cells
T1 sequence (Q8NER1 whole entry): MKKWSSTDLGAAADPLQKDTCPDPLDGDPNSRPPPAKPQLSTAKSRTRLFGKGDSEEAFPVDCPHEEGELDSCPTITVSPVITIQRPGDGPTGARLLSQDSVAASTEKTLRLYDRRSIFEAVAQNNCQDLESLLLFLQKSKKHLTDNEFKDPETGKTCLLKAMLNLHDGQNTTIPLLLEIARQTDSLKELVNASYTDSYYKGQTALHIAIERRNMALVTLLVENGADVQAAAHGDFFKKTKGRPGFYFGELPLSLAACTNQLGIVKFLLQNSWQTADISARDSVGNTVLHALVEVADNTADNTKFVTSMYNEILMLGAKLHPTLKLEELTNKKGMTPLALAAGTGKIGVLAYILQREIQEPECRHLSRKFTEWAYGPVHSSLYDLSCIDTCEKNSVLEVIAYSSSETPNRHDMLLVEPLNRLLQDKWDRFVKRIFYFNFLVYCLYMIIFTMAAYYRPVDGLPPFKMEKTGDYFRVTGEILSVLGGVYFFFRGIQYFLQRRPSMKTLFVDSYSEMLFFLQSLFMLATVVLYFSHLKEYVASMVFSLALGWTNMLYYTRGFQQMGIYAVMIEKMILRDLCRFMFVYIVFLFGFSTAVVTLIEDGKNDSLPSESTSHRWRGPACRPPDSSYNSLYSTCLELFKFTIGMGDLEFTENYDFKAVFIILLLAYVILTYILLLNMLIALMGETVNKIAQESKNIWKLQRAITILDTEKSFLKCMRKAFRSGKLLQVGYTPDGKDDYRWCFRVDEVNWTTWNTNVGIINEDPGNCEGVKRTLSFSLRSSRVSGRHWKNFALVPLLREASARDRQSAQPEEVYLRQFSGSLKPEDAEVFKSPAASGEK
Protocol: An inhibitory effect on VR1 activity was evaluated by measuring Ca^2+ uptake in cells.
Rat glioma (C6BU1) cells stably expressing human VR1 were suspended in 20 mM MES buffer (at pH 6.8, contg. 20 mM 2-morpholinoethanesulfonate (referred to as MES hereinafter), 115 mM NaCl, 5 mM KCl, 1 mM MgCl2 and 14 mM D-glucose) to make a cell density of 1×10^6 cells/mL. A fluorescent dye, Fura 2-AM solution (Dojindo Corporate, Cat. No. 343-05401) was added to the suspension to make a 5 μM concentration thereof. Further, Pluronic F-127 (Wako Pure Chemical Industries, Ltd., Cat. No. P6866) was added to make a 0.1% content thereof. Then, the suspension was incubated at 37° C. for 30 min. The cells were harvested and washed two times with 20 mM MES buffer. The cells were suspended again to make a cell density of 5×10^5 cells/mL. A 500-μL portion of the suspension was taken with a cuvette (MC MEDICAL, INC., Cat. No. SSR3121), to which 10 μL of 20 mM MES buffer containing 250 mM CaCl2 was added to incorporate Ca^2+ into the cells. At the same time, 5 μL of a test compound solution (in a range of 100 μM to 10 nM in DMSO) was also added to provide a final concentration thereof in a range of 1 μM to 0.1 nM. Alternatively, 5 μL of DMSO was added as control to provide a final concentration of 1% DMSO. The suspension was set in an intracellular ionometer (CAF-110; JASCO) 10 min after those additions. The cells were stimulated with protons by addition of 50 μL of 20 mM MES buffer at pH 1.1 to the suspension to set its pH at 5.7. The activity of the test compound was determined as a difference between the minimum of fluorescence intensity before agonist stimulation and its maximum after the stimulation. The value of IC50 was derived from percentage of inhibition by the test compound compared with the control.

Caco2 cells = test: In-vitro membrane permeability test (Test Example [3]); type: in vitro ADME; conditions: summary judgement
Protocol: (§1) 10 mM DMSO solution of the test compound was diluted with Hanks buffer (pH 6.5) to 25 μM to make a test compound solution. 300 μL of Apical buffer (Hanks buffer (pH 6.5)) and 1 mL of Basolateral buffer (4.5% BSA-containing Hanks buffer (pH 7.4)) were added to the apical side (mucosal side) and the basolateral side (serosal side), respectively, of Caco2 cells (cells cultured for 6 days after seeding) seeded onto a plate for permeability test (BIOCOAT HTS Caco2 Assay system: BD Biosciences), and preincubated at 37° C. for 20 minutes, followed by measurement of a transepithelial electrical resistance value. Each buffer on the apical side and basolateral side was removed by aspiration. Then, 300 μL of the test compound solution and 1 mL of Basolateral buffer were added to the apical side and the basolateral side, respectively, and incubated at 37° C. for 2 hours with stirring at 60 rpm. Then, sampling was performed from each of the apical side and the basolateral side, and the sample was supplemented with acetonitrile and centrifuged. The test compound (uncharged) in the supernatant was measured using high-performance liquid chromatography/tandem mass spectrometry (LC/MS/MS: Quantum, Thermo Quest).
(§2) A membrane permeability coefficient (Papp) was calculated according to the following equation: Papp(cm/sec.)=(dx/dt)/(A×C0)
(§3) (wherein dx is the amount of the test compound (uncharged) on the basolateral side after incubation, dt is an incubation time, A is the surface area of the cell membrane, and C0 is the initial concentration of the test compound on the apical side.)

[1] = as above; type: in vitro ADME; conditions: human, Caco-2, Caco2 cells, 2 hours
Protocol: as §1, §2, §3

[2] = Metabolic stability test in liver S9 (Test Example [2]); type: in vitro ADME, human; conditions: for Human liver S9 remaining ratio: human liver S9 2 mg protein/mL, 37° C., 60 minutes of incubation vs 0 minute
Protocol: Human liver S9 (final concentration: 2 mg protein/mL) was suspended in 100 mM potassium phosphate buffer (at pH 7.4, which contained β-nicotinamide adenine dinucleotide phosphate: 1.3 mM, D-glucose-6-phosphate: 3.3 mM, magnesium chloride: 3.3 mM and glucose-6-phosphate dehydrogenase: 0.45 U/mL) and further mixed with the test compound dissolved in DMSO. The mixture was incubated at 37° C. for 0 and 60 minutes and then supplemented with acetonitrile containing formic acid (final concentration 0.1%). The test compound (uncharged) in a supernatant after centrifugation was measured using high-performance liquid chromatography/mass spectrometry (LC/MS). A remaining ratio (%) was calculated from the obtained measurement value according to the following equation: Remaining ratio (%)=(amount of test compound after 60 minutes of incubation/amount of test compound on 0 minute of incubation)×100

[3] = Stability test in Japanese Pharmacopoeia 1 solution (Test Example [4]); type: physicochemical; conditions: for remaining ratio in Japanese Pharmacopoeia 1 solution: CH3CN : Japanese Pharmacopoeia 1 solution 3:7, 0.05 mM, 40° C., after 8 hours vs 0 hour
Protocol: The test compound was dissolved in a mixed solution of CH3CN and Japanese Pharmacopoeia 1 solution (volume ratio 3:7) and adjusted in a vial for HPLC to a concentration of 0.05 mM. The test compound was measured by HPLC at 40° C. after 0 and 8 hours. The measurement value on 0 hour was defined as 100% to determine the remaining ratio of the test compound after 8 hours.
The “Japanese Pharmacopoeia 1 solution” here represents a solution in which 21 ml of concentrated hydrochloric acid was added to 6 g of sodium chloride and further adjusted to 3 L with distilled water.

[4] = apical (pH 6.5) to basolateral (pH 7.4, 4.5% BSA), 25 μM, 37° C., read-out: membrane permeability Papp
[5] = compared with the compound of Comparative Example 8

Compound | IC50 (human VR1) | membrane permeability (in words) (Caco2 cells) | Papp A→B at 2 h, 25 μM [1, 4] | Human liver S9 remaining ratio [2] | metabolic stability in human liver S9 (in words) ([2]; summary judgement) | remaining ratio in Japanese Pharmacopoeia 1 solution [3] | stability in gastric juice (in words) ([3]; inferred from stability in Japanese Pharmacopoeia 1 solution) | value of IC50 relative to Comparative Example 8 (human VR1; [5]) | Papp A→B at 2 h, 25 μM ([1]; apical to basolateral, read-out: membrane permeability in terms of the Papp values) | liver S9 remaining ratio relative to Comparative Example 8 [2, 5]
Cc1ccc(N2c3cccc(C(=O)Nc4ccc(C(F)(F)F)nc4)c3OC[C@@H]2CO)nc1 [Comparative Example 8] | 7 nM | high membrane permeability | 43.1 ×10⁻⁶ cm/s | 62.9% |  |  |  |  |  | 
Cc1ccc(N2c3cccc(C(=O)Nc4ccc(OC(C)C)c(F)c4)c3OC[C@@H]2CO)nc1 [Comparative Example 11] | 0.36 nM | high membrane permeability | 40.3 ×10⁻⁶ cm/s | 66.7% |  |  |  |  |  | 
Cc1ccc(N2c3cccc(C(=O)Nc4ccc(OC(C)(C)C)c(F)c4)c3OC[C@@H]2CO)nc1 [Comparative Example 13] | 0.12 nM |  | 28.6 ×10⁻⁶ cm/s | 91.3% | excellent metabolic stability | 62.1% | inferior stability in gastric juice |  |  | 
Cc1ccc(N2c3cccc(C(=O)Nc4ccc(OCC(F)(F)F)nc4)c3OC[C@@H]2CO)nc1 [Example 1-6, (S)-4-(5-picoline-2-yl)-3-hydroxymethyl-N-[2-(2,2,2-trifluoroethyloxy)pyridine-5-yl]-3,4-dihydro-2H-benzo[1,4]oxazine-8-carboxamide] | 0.15 nM |  | 37.5 ×10⁻⁶ cm/s |  |  | 100% |  | about 50 times | ≥ 30 ×10⁻⁶ cm/s | about 1.5 times
Cc1ccc(N2c3cccc(C(=O)Nc4cc(F)c(OCC(F)(F)F)c(F)c4)c3OC[C@@H]2CO)nc1 [Example 1-8, (S)-4-(5-picoline-2-yl)-3-hydroxymethyl-N-[3,5-difluoro-4-(2,2,2-trifluoroethoxy)phenyl]-3,4-dihydro-2H-benzo[1,4]oxazine-8-carboxamide] | 0.038 nM |  | 13.6 ×10⁻⁶ cm/s |  |  | 101% |  |  |  | 
